Laboratory results: patent publication US9814706B2, “Hydrobromide salt of pridopidine” (Teva Pharmaceuticals International GmbH, priority 2011, dated 2017)
Structures can show the parent of a compound that is named as a salt. Where two headings read alike, the source gives them in different places.

Settings: for hygroscopicity / deliquescence by DVS profile (in words): hydrobromide salt
Method: DVS analysis was performed on two of the HCl salts of pridopidine (HCl salt of pridopidine batches A and B). A full two cycle sorption and desorption profile was obtained for a third HCl salt of pridopidine (hydrochloride salt of pridopidine batch C).
An additional run was performed in the mid-eighties relative humidity range in order to indentify the transition point in more detail. (See FIG. 9). […] Dynamic vapour sorption (DVS) measurements were conducted using a Q5000 SA from TA instruments.
Prior to the first sorption cycle the sample was equilibrated at 20% RH and the initial weight recorded. Samples were analyzed in an aluminium pan. Humidity was brought down to 0% RH and the sample dried until the weight had stabilized within a given limit. The temperature was held constant at 25° C. Maximum step time was 720 min. Gas flow was 200 cm^3/min.

| SMILES | weight gain at 90% relative humidity (DVS) (90% RH step, first sorption cycle) | state of specimen at the end of the DVS cycle (additional run with smaller steps in the mid-eighties RH range (80-90-80%)) | weight gained between 0 and 95% RH (DVS), lost again during desorption (0-95% RH, two sorption/desorption cycles, 25° C.) | hygroscopicity / deliquescence by DVS profile (in words) (0-95% RH) | hygroscopicity / deliquescence by DVS profile (in words) (0-95% RH, listed as NS30016-HBr salt) | weight gained at the 95% relative humidity (RH) level (DVS) (95% RH, 25° C.) |
| --- | --- | --- | --- | --- | --- | --- |
| CCCN1CCC(c2cccc(S(C)(=O)=O)c2)CC1 [hydrochloride salt of pridopidine, hydrochloride salt of 4-(3-methanesulfonyl-phenyl)-1-propyl-piperidine, reference compound] | approximately 80% | completely dissolved | – | – | – | – |
| Br.CCCN1CCC(c2cccc(S(C)(=O)=O)c2)CC1 [Pridopidine hydrobromide, 4-(3-methanesulfonyl-phenyl)-1-propyl-piperidine hydrobromide salt] | – | – | approximately 0.15% | non-hygroscopic and non-deliquescent | non-hygroscopic | less than 1% |
